One data set has as its system Quadruplex DNA. The experiment in a line: Binding affinity to G4 quadruplex DNA in human PANC1 cells assessed as increase in number of BG4 foci at 400 nM after 24 hrs by immunofluorescence based confocal microscopic analysis. It is filed as cell-based. The note with it: PANC-1.
A further data set relates to CAPAN-1. Put plainly: Antiproliferative activity against human Capan1 cells assessed as growth inhibition after 96 hrs by SRB assay. Type of data set: functional. A general note: The SRB assay estimates cell density from bound dye.
The next data set concerns BXPC-3. The experiment in a line: Antiproliferative activity against human BxPC3 cells assessed as growth inhibition after 96 hrs by SRB assay. Type of data set: functional.
For another data set, the system named is PANC-1. Put plainly: Antiproliferative activity against human PANC1 cells assessed as growth inhibition after 96 hrs by SRB assay. Type of data set: functional.
Data set [1] concerns MIA PaCa-2. The experiment in a line: Antiproliferative activity against human MIAPaCa2 cells assessed as growth inhibition after 96 hrs by SRB assay. Type of data set: functional.
The nature of data set [2]: Half life in mouse xenografted with human MIAPaCa2 cells at 9.1 mg/kg, iv administered as single dose. It is filed as ADME, organism-based. The note with it: in vivo. On the technique in general: Xenograft models place foreign cells or tissue in a host animal.
Data set [3] is described as follows: Clearance in mouse xenografted with human MIAPaCa2 cells at 9.1 mg/kg, iv administered as single dose. Type of data set: ADME, organism-based. As to conditions: in vivo.
The nature of data set [4]: Volume of distribution at steady state in mouse xenografted with human MIAPaCa2 cells at 9.1 mg/kg, iv administered as single dose. As to conditions: in vivo, read-out: Vdss. It is filed as ADME, organism-based.
A short description of data set [5]: Apparent volume of distribution in mouse xenografted with human MIAPaCa2 cells at 9.1 mg/kg, iv administered as single dose. It is filed as ADME, organism-based. The note with it: in vivo, read-out: Vz.
Data set [6] in a line: Cmax in mouse xenografted with human MIAPaCa2 cells at 9.1 mg/kg, iv administered as single dose. Type of data set: ADME, organism-based. On the set-up: route intravenous, dose 9.1 mg/kg. The note with it: in vivo.
Data set [7] is described as follows: AUC in mouse xenografted with human MIAPaCa2 cells at 9.1 mg/kg, iv administered as single dose. Type of data set: ADME, organism-based. Also noted: dose 9.1 mg/kg. The note with it: in vivo.
A short description of data set [8]: AUC (infinity) in mouse xenografted with human MIAPaCa2 cells at 9.1 mg/kg, iv administered as single dose. The note with it: in vivo. On the set-up: route intravenous, time infinity, dose 9.1 mg/kg. Type of data set: ADME, organism-based.
The nature of data set [9]: Half life in mouse xenografted with human MIAPaCa2 cells at 14 mg/kg, iv administered as single dose. It is filed as ADME, organism-based. The note with it: in vivo.
Data set [10] in a line: Clearance in mouse xenografted with human MIAPaCa2 cells at 14 mg/kg, iv administered as single dose. It is filed as ADME, organism-based. The note with it: in vivo.
The nature of data set [11]: Volume of distribution at steady state in mouse xenografted with human MIAPaCa2 cells at 14 mg/kg, iv administered as single dose. It is filed as ADME, organism-based. The note with it: in vivo, read-out: Vdss.
Data set [12] is described as follows: Apparent volume of distribution in mouse xenografted with human MIAPaCa2 cells at 14 mg/kg, iv administered as single dose. It is filed as ADME, organism-based. As to conditions: in vivo, read-out: Vz.
Data set [13] can be described thus: Cmax in mouse xenografted with human MIAPaCa2 cells at 14 mg/kg, iv administered as single dose. It is filed as ADME, organism-based. On the set-up: route intravenous, dose 14 mg/kg. The note with it: in vivo.
Data set [14] can be described thus: AUC in mouse xenografted with human MIAPaCa2 cells at 14 mg/kg, iv administered as single dose. Also noted: dose 14 mg/kg. Type of data set: ADME, organism-based. As to conditions: in vivo.
Data set [15] can be described thus: AUC (infinity) in mouse xenografted with human MIAPaCa2 cells at 14 mg/kg, iv administered as single dose. Type of data set: ADME, organism-based. Also noted: route intravenous, time infinity, dose 14 mg/kg. The note with it: in vivo.
In data set [16] the test system is MIA PaCa-2. Put plainly: Antitumor activity against human MIAPaCa2 cells xenografted in mouse assessed as mean tumor volume at 10 mg/kg, iv administered twice per week for 28 days and measured at day 28 by Caliper method (reference value: 0.45 +/- 0.18 cm3). It is filed as functional. As to conditions: time 28 day.
Data set [17] relates to MIA PaCa-2. The experiment in a line: Antitumor activity against human MIAPaCa2 cells xenografted in mouse assessed as change in tumor volume at 10 mg/kg, iv administered twice per week for 28 days and measured at day 28 by Caliper method relative to control. It is filed as functional. The note with it: time 28 day.
In data set [18] the test system is MIA PaCa-2. Put plainly: Antitumor activity against human MIAPaCa2 cells xenografted in mouse assessed as change in tumor volume at 15 mg/kg, iv administered twice per week for 28 days and measured at day 28 by Caliper method relative to control. Type of data set: functional. The note with it: time 28 day.
Data set [19] deals with MIA PaCa-2. Put plainly: Antitumor activity against human MIAPaCa2 cells xenografted in mouse assessed as mean tumor volume at 10 mg/kg, iv administered twice per week for 28 days and measured at day 53 by Caliper method (reference value: 1.60 +/- 0.44 cm3). It is filed as functional. The note with it: time 28 day.
The test system of data set [20] is MIA PaCa-2. The experiment in a line: Antitumor activity against human MIAPaCa2 cells xenografted in mouse assessed as change in tumor volume at 10 mg/kg, iv administered twice per week for 28 days and measured at day 53 by Caliper method relative to control. Type of data set: functional. The note with it: time 28 day.
Data set [21] concerns MIA PaCa-2. The experiment in a line: Antitumor activity against human MIAPaCa2 cells xenografted in mouse assessed as change in tumor volume at 15 mg/kg, iv administered twice per week for 28 days and measured at day 53 by Caliper method relative to control. It is filed as functional. As to conditions: time 28 day.
Data set [22] deals with MIA PaCa-2. The experiment in a line: Antitumor activity against human MIAPaCa2 cells xenografted in mouse assessed as change in tumor volume at 1 mg/kg, iv administered twice per week for 28 days and measured at day 53 by Caliper method relative to control. Type of data set: functional. As to conditions: time 28 day.
The subject of data set [23] is Mus musculus. The experiment in a line: Down regulation of MAPK11 expression in mouse xenografted with human MIAPaCa2 cells at 15 mg/kg, iv administered twice per week for 28 days and measured on day 28 by Western blot analysis. Type of data set: functional, organism-based. As to conditions: time 28.0 day.
For data set [24], the system named is Mus musculus. Put plainly: Down regulation of MAPK11 expression in mouse xenografted with human MIAPaCa2 cells at 10 mg/kg, iv administered twice per week for 28 days and measured on day 28 by Western blot analysis. The note with it: time 28.0 day. Type of data set: functional, organism-based.
The test system of data set [25] is Mus musculus. The experiment in a line: Effect on hTERT expression in mouse xenografted with human MIAPaCa2 cells at 10 mg/kg, iv administered twice per week for 28 days and measured on day 28 by Western blot analysis. Type of data set: functional, organism-based. The note with it: time 28.0 day.
The test system of data set [26] is Mus musculus. The experiment in a line: Effect on hTERT expression in mouse xenografted with human MIAPaCa2 cells at 15 mg/kg, iv administered twice per week for 28 days and measured on day 28 by Western blot analysis. Type of data set: functional, organism-based. As to conditions: time 28.0 day.
For data set [27], the system named is MIA PaCa-2. The experiment in a line: Antiproliferative activity against human MIAPaCa2 cells assessed as growth inhibition after 96 hrs by MTS assay relative to SOP1812. Type of data set: functional.

SMILES strings stand for the structures. The source made the active and inactive calls.

In the case of `O=C1c2ccc3c4c(c(NCCN5CCCC5)cc(c24)C(=O)N1CCCN1CCOCC1)C(=O)N(CCCN1CCOCC1)C3=O`, in the data set on Quadruplex DNA, the outcome was Active. For the same compound, the GI50 with CAPAN-1 turned out to be 26.5 nM; in the data set with BXPC-3 it was 15.5 nM; with PANC-1 it was 15.6 nM; with MIA PaCa-2 [1], 9 nM. Besides, the half-life in data set [2] was 33 h; in data set [9] it was 16 h. Moreover, the clearance was 10.9 mL/min/kg in data set [3] and 8.1 mL/min/kg in data set [10]. Besides, the Vd was found to be 5.2 L/kg in data set [4], 27.8 L/kg in [5], 2.2 L/kg in data set [11] and 11.8 L/kg in data set [12]. The Cmax in data set [6] stood at 4520 ng/mL; in data set [13] it was 22100 ng/mL. Further, the AUC in data set [7] turned out to be 11100 ng·h/mL; in [14], 30600 ng·h/mL. In addition, the AUC(0-inf) in [8] was 14500 ng·h/mL; in data set [15], 34400 ng·h/mL. For the same compound, the Activity in the data set with MIA PaCa-2 [16] was 0.16 cm3; in the data set on MIA PaCa-2 [17], -64.4%; in the data set with MIA PaCa-2 [18] it was -73.3%; in the data set with MIA PaCa-2 [19], 0.63 cm3; in the data set with MIA PaCa-2 [20] it was -60.6%; with MIA PaCa-2 [21], -78.1%. Besides, the Activity in the data set with MIA PaCa-2 [22] was -90.6%. Moreover, the inhibition entry in the data set with Mus musculus [23] is “Active”. For the same compound, the inhibition result in the data set with Mus musculus [24] was “inactive”. The result in the data set with Mus musculus [25] and with Mus musculus [26] was inactive.

Regarding `O=C1c2cc(-c3ccccc3CN3CCCC3)c3c4c(cc(NCCN5CCCC5)c(c24)C(=O)N1CCCN1CCOCC1)C(=O)N(CCCN1CCOCC1)C3=O`, the “growth inhibition (GI)” value with MIA PaCa-2 [27] is on record as 2.7%.

Turning to `O=C1c2cc(-c3ccc(CN4CCOCC4)cc3)c3c4c(cc(NCCN5CCCC5)c(c24)C(=O)N1CCCN1CCOCC1)C(=O)N(CCCN1CCOCC1)C3=O`, the “growth inhibition (GI)” value in the data set with MIA PaCa-2 [27] is recorded as 19.2%.

Consider `O=C1c2cc(-c3cccc(CN4CCCC4)c3)c3c4c(cc(NCCN5CCCC5)c(c24)C(=O)N1CCCN1CCOCC1)C(=O)N(CCCN1CCOCC1)C3=O`, for which the “growth inhibition (GI)” value in the data set with MIA PaCa-2 [27] amounted to 19.7%.

Consider `O=C1c2cc(-c3ccc(CN4CCCCCC4)cc3)c3c4c(cc(NCCN5CCCC5)c(c24)C(=O)N1CCCN1CCOCC1)C(=O)N(CCCN1CCOCC1)C3=O`, for which the “growth inhibition (GI)” value in the data set with MIA PaCa-2 [27] came out at 30.7%.

Take `O=C1c2cc(-c3ccc(CNC4CCCC4)cc3)c3c4c(cc(NCCN5CCCC5)c(c24)C(=O)N1CCCN1CCOCC1)C(=O)N(CCCN1CCOCC1)C3=O`: the “growth inhibition (GI)” value with MIA PaCa-2 [27] worked out at 54.9%.

As for `O=C1c2cc(-c3ccc(CN4CCCCC4)cc3)c3c4c(cc(NCCN5CCCC5)c(c24)C(=O)N1CCCN1CCOCC1)C(=O)N(CCCN1CCOCC1)C3=O`, in the data set on MIA PaCa-2 [27], the “growth inhibition (GI)” value is listed as 32%.

For `O=C(c1ccc(-c2cc3c4c(c(NCCN5CCCC5)cc5c4c2C(=O)N(CCCN2CCOCC2)C5=O)C(=O)N(CCCN2CCOCC2)C3=O)cc1)N1CCCC1`, the “growth inhibition (GI)” value with MIA PaCa-2 [27] was found to be 10.9%.

In the case of `CCN(CC)Cc1ccc(-c2cc3c4c(c(NCCN5CCCC5)cc5c4c2C(=O)N(CCCN2CCOCC2)C5=O)C(=O)N(CCCN2CCOCC2)C3=O)cc1`, in the data set with MIA PaCa-2 [27], the “growth inhibition (GI)” value is given as 31.1%.

Regarding `O=C1c2cc(-c3ccc(N4CCCC4)cc3)c3c4c(cc(NCCN5CCCC5)c(c24)C(=O)N1CCCN1CCOCC1)C(=O)N(CCCN1CCOCC1)C3=O`, the “growth inhibition (GI)” value in the data set on MIA PaCa-2 [27] stood at 1.9%.

For the compound `CN1CCN(Cc2ccc(-c3cc4c5c(c(NCCN6CCCC6)cc6c5c3C(=O)N(CCCN3CCOCC3)C6=O)C(=O)N(CCCN3CCOCC3)C4=O)cc2)CC1`, the “growth inhibition (GI)” value with MIA PaCa-2 [27] is given as 20.2%.

Consider `Nc1ccn([C@@H]2O[C@H](CO)[C@@H](O)C2(F)F)c(=O)n1` [GEMCITABINE], for which the values for the Activity in the data set with MIA PaCa-2 [18] and with MIA PaCa-2 [21] were -71.1% and -75.6%, respectively. For the same compound, the inhibition result in the data set with Mus musculus [23] is “inactive”. The result in the data set with Mus musculus [26] was inactive.

One may read the GI50 as the concentration at which growth is held to half of that of the control. As usually defined, the half-life is the time needed for the level to fall by half in the phase considered. A high value points to slow decline. In general, clearance refers to the rate of elimination divided by the concentration. Higher therefore signals a high capacity for elimination. As usually defined, the Cmax is the peak of the concentration-time curve. A word on the AUC: it is the area under the concentration-time curve, a measure of exposure. Higher therefore signals more exposure. For orientation: AUC(0-inf) means total exposure, with the tail of the curve extrapolated. Low values mean low exposure, high ones high exposure.

These data come from ChEMBL document CHEMBL4725390, “Asymmetrically Substituted Quadruplex-Binding Naphthalene Diimide Showing Potent Activity in Pancreatic Cancer Models” (ACS Med Chem Lett, 2020).
